Series [1] can be described thus: T1 relaxivity of gadolinium complexes (IBM Minispec spin analyzer). It is filed as physicochemical. The note with it: Gd(L) complex, 20 MHz, 39±1° C.; for T1 Relaxivity: aqueous solutions, 0.1-5 mM Gd. The protocol: The T1 relaxivity was measured for nine prior art gadolinium complexes (1-9) as compared to novel gadolinium complexes using the ligands of Examples 1, 2 and 3 (#10, 11 and 12, respectively, in the Table below). Relaxivity was measured on an IBM Minispec spin analyzer operating at 20 MHz and 39±1° C. Aqueous solutions were used in 0.1-5 mM Gd concentration range.

The conditions of series [2]: chelating a paramagnetic ion, e.g., Gd; cited from earlier work.
For series [3] the following is noted: chelating a paramagnetic ion, e.g., Gd; cited from earlier work. The source holds these as a separate data set.

Take “10-[2-[[3,5-Bis[[(2,3-dihydroxypropyl)amino]-carbonyl]phenyl]amino]-2-oxoethyl]-1,4,7,10-tetraazacyclododecane-1,4,7-triacetic acid, monogadolinium complex [HAA-DO3A]”: in series [1], the “relaxivity (comparison in words of Table 1)” value is listed as “especially high” and the T1 Relaxivity worked out at 5.8 mM⁻¹ s⁻¹.

As for `O=C(O)CN(CCN(CC(=O)O)CC(=O)O)CCN(CC(=O)O)CC(=O)O` (Gd complex, metal not drawn) [DTPA, diethylenetriaminepentaacetic acid, reference compound], the T1 Relaxivity in series [1] came out at 3.7 mM⁻¹ s⁻¹.

Regarding `O=C(O)CN1CCN(CC(=O)O)CCN(CC(=O)Nc2cc(C(=O)NC(CO)CO)cc(C(=O)NC(CO)CO)c2)CCN(CC(=O)O)CC1` [HAS-DO3A], in series [1], the “relaxivity (comparison in words of Table 1)” value is recorded as “especially high” and the T1 Relaxivity was 5.4 mM⁻¹ s⁻¹.

With `O=C(O)CN1CCN(CC(=O)O)CCN(CC(=O)Nc2ccccc2)CCN(CC(=O)O)CC1`, in series [2], the water solubility entry is “poor water solubility”. The relaxivity entry in series [3] is “acceptable relaxivity”.

Regarding “10-[2-[[3,5-Bis[[(2-methylbutyl)amino]carbonyl]-phenyl]amino]2-oxoethyl]1,4,7,10-tetraazacyclododecane-1,4,7-triacetic acid, monogadolinium complex [AAA-DO3A]”, in series [1], the “relaxivity (comparison in words of Table 1)” value is listed as “especially high” and the T1 Relaxivity is 5.9 mM⁻¹ s⁻¹.

As to `O=C(O)CN(CCN(CC(=O)O)C(=O)NCC(O)CO)CCN(CC(=O)O)C(=O)NCC(O)CO` (centres unmarked) (Gd complex, metal not drawn) [DTPA-HA, reference compound], the T1 Relaxivity in series [1] is 4.4 mM⁻¹ s⁻¹.

In series [1], `O=C(O)CN1CCN(CC(=O)O)CCN(CC(=O)O)CCN(CC(=O)O)CC1` [DOTA, reference compound] came in with a T1 Relaxivity of 3.4 mM⁻¹ s⁻¹.

Values taken from patent US7351389B2, “Aminocarboxylate ligands having substituted aromatic amide moieties” (Bracco International B.V., priority 1991, dated 2008).
